Where two headings read alike, the source gives them in different places.

Data set [1] concerns Serum Cholesterol. Put plainly: Determination of serum cholesterol, rat Alzet minipump model. Type of data set: in vivo. The note with it: 20 MPL/DAY, mean (SEM). Here is the method:
Determination of Serum Cholesterol (SER.CHOL, HDL-CHOL, TGI and VLDL+LDL)
Total serum cholesterol (SER.CHOL) was measured enzymatically using a commercial kit from Wako Fine Chemicals (Richmond, Va.); Cholesterol C11, Catalog No. 276-64909. HDL cholesterol (HDL-CHOL) was assayed using this same kit after precipitation of VLDL and LDL with Sigma Chemical Co. HDL Cholesterol reagent, Catalog No. 352-3 (dextran sulfate method). Total serum triglycerides (blanked) (TGI) were assayed enzymatically with Sigma Chemical Co. GPO-Trinder, Catalog No. 337-B. VLDL and LDL (VLDL+LDL) cholesterol concentrations were calculated as the difference between total and HDL cholesterol.

Data set [2] addresses T1, human IBAT (Homo sapiens, UniProt Q12908).
T1 construct: expressed in transfected cells; host or cells: Baby hamster kidney (BHK) cells, clone H14
T1 sequence (Q12908 1-348): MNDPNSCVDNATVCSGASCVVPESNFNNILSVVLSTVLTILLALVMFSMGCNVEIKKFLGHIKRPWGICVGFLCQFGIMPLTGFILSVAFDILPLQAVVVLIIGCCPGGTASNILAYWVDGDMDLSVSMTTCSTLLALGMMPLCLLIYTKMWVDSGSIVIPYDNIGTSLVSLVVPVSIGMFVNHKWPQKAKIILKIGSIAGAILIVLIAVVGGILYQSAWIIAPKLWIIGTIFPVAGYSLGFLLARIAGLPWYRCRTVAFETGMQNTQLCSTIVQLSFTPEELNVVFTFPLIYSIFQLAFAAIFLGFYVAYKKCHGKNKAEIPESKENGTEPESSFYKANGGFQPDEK
Put plainly: In vitro assay of IBAT-mediated uptake of [14C]-taurocholate (TC) in H14 cells. Type of data set: cell-based. The gist of the method: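 BHK cells stably expressing human IBAT (H14) were incubated 2 h at 37° C with compound and 3 μM final [14C]-taurocholate in DMEM (4.5 g/L glucose) plus 0.2% fatty acid-free BSA. After cold PBS washes, cell-associated radioactivity was measured by scintillation counting.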

Data set [3] concerns the target ACAT. Put plainly: Acyl-CoA; cholesterol acyl transferase (ACAT), hamster liver microsomes. The note with it: read-out: ACAT (liver) IC(50). Type of data set: biochemical. Here is the method: (§1) Acyl-CoA; Cholesterol Acyl Transferase (ACAT)
(§2) Hamster liver and rat intestinal microsomes were prepared from tissue as described previously (Reference: (1980) J. Biol. Chem. 255, 9098) and used as a source of ACAT enzyme. The assay consisted of a 2.0 ml incubation containing 24 μM Oleoyl-CoA (0.05 μCi) in a 50 mM sodium phosphate, 2 mM DTT ph 7.4 buffer containing 0.25% BSA and 200 μg of microsomal protein. The assay was initiated by the addition of oleoyl-CoA. The reaction went for 5 min at 37° C. and was terminated by the addition of 8.0 ml of chloroform/methanol (2:1). […] The chloroform phase was taken to dryness and then spotted on a silica gel 60 TLC plate and developed in hexane/ethyl ether (9:1). The amount of cholesterol ester formed was determined by measuring the amount of radioactivity incorporated into the cholesterol oleate spot on the TLC plate with a Packard instaimager.
(Microsomes from liver hold many membrane-bound enzymes, among them those of drug oxidation.)

A short description of data set [4]: Rat Alzet minipump model: body, liver and fecal weight. The class given is in vivo. To be noted: 20 MPL/DAY, mean (SEM).
The subject of data set [5] is Rat Ileal Uptake of [14C]-Taurocholate. Put plainly: In vivo assay of rat ileal uptake of [14C]-taurocholate into bile (ileal loop). As for the experimental part: In Vivo Assay of Compounds that Inhibit Rat Ileal Uptake of [^14C]-Taurocholate into Bile
(See “Metabolism of 3α,7β-dihydroxy-7α-methyl-5β-cholanoic acid and 3α,7β-dihydroxy-7α-methyl-5β-cholanoic acid in hamsters” in Biochimica et Biophysica Acta 833 (1985) 196-202 by Une et al.)
Male wistar rats (200-300 g) are anesthetized with inactin @100 mg/kg. Bile ducts are cannulated with a 10″ length of PE10 tubing. The small intestine is exposed and laid out on a gauze pad. A canulae (⅛″ luer lock, tapered female adapter) is inserted at 12 cm from the junction of the small intestine and the cecum. A slit is cut at 4 cm from this same junction (utilizing a 8 cm length of ileum). 20 ml of warm Dulbecco's phosphate buffered saline, pH 6.5 (PBS) is used to flush out the intestine segment. The distal opening is cannulated with a 20 cm length of silicone tubing (0.02″ I.D.×0.037″ O.D.). The proximal cannulae is hooked up to a peristaltic pump and the intestine is washed for 20 min with warm PBS at 0.25 ml/min. Temperature of the gut segment is monitored continuously. At the start of the experiment, 2.0 ml of control sample ([^14C]-taurocholate @ 0.05 mi/ml with 5 mM cold taurocholate) is loaded into the gut segment with a 3 ml syringe and bile sample collection is begun. Control sample is infused at a rate of 0.25 ml/min for 21 min. Bile samples fractions are collected every 3 minute for the first 27 minutes of the procedure. After the 21 min of sample infusion, the ileal loop is washed out with 20 ml of warm PBS (using a 30 ml syringe), and then the loop is washed out for 21 min with warm PBS at 0.25 ml/min. A second perfusion is initiated as described above but this with test compound being administered as well (21 min administration followed by 21 min of wash out) and bile sampled every 3 min for the first 27 min. If necessary, a third perfusion is performed as above that typically contains the control sample.

Data set [6] has as its target ACAT. The data set is described as follows: Acyl-CoA; cholesterol acyl transferase (ACAT), rat intestinal microsomes. The class given is biochemical. To be noted: read-out: ACAT intestine IC(50). As for the experimental part: as §1, §2

On to `CCCC[C@]1(CC)CS(=O)(=O)c2cc(OC)ccc2[C@@H](c2ccccc2)[C@H]1O` [Example 25, (3α,4β,5β) 3-Butyl-3-ethyl-4-hydroxy-8-methoxy-5-phenyl-2,3,4,5-tetrahydrobenzothiepine-1,1-dioxide], for which the “SER.CHOL (mg %)” value in data set [1] was 84 (3) mg %. Moreover, the IC50 in data set [2] (H14 cells, Table 5, read-out: IC50 uM (In vitro Taurocholate Cell Uptake)) amounted to 0.1 µM; in data set [2] (Table 6, read-out: TC-uptake (H14 cells) IC(50)), 0.1 µM; in data set [3], 8 µM; in data set [6], 8 µM. For the same compound, the “LIVER WEIGHT (G)” value in data set [4] was 14.6 (0.4) G. In addition, the “WEIGHT (G) day 1” value in data set [4] is given as 307 (3) G. Moreover, the “WEIGHT (G) day 8” value in data set [4] is given as 310 (4) *A, B G. Moreover, the activity at 100 µM in data set [5] (Rattus norvegicus, read-out: % of Control Transport of TC in Rat Ileum @ 0.1 mM) amounted to 26%. The EC50 in data set [5] (rat ileal loop, read-out: TC-uptake Ileal Loop EC(50)) amounted to 20 µM.

The values are drawn from patent US6784201B2, “Benzothiepines having activity as inhibitors of ileal bile acid transport and taurocholate uptake” (G.D. Searle & Company, priority 1994, dated 2004).
